pIC50: −log10 of the molar value.
Target: T1, USP28 (His-tagged USP28-FL-mammalian) (Homo sapiens, UniProt Q96RU2)
T1 construct: Expression of USP28 (1-1077)-TEV-6*His (pTT5 vector); made in house; host or cells: Expi293f cells (pTT5 vector)
T1 sequence (Q96RU2 1-1077): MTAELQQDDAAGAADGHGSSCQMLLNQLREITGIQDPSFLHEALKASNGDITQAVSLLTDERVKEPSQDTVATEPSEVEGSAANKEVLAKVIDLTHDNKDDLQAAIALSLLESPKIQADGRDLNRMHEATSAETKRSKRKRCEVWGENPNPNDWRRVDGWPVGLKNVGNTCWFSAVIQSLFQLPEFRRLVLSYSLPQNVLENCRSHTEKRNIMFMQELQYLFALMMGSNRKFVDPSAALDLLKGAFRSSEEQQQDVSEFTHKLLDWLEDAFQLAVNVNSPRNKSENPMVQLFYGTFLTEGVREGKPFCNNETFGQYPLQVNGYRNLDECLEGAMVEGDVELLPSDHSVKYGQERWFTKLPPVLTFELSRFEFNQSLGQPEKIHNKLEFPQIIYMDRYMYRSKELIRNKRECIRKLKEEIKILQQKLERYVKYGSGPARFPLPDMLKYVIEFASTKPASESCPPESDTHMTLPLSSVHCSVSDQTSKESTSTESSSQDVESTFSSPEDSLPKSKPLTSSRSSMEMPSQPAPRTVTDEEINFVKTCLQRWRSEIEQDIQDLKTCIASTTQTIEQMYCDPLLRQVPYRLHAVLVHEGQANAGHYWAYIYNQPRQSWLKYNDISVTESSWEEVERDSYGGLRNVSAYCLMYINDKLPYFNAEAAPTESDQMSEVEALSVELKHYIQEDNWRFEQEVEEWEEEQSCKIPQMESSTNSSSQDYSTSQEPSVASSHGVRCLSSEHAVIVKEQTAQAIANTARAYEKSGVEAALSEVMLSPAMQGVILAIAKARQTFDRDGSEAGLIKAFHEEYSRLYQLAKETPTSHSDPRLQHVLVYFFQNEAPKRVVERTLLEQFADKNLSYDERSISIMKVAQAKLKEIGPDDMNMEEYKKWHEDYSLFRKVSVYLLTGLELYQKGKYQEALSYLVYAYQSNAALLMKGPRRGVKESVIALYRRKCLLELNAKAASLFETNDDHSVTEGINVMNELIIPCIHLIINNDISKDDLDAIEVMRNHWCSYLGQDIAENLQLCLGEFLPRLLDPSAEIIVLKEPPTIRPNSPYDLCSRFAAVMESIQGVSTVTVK
Experiment: Ubiquitin-Rhodamine 110 Assay for USP28 Activity, Example A-1(a)
Type: biochemical
Settings: Ubiquitin-Rhodamine 110 assay, Example A-1(a); read-out: USP28 A-1(a) IC50 range
Method in brief: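 Full-length His-tagged human USP28 (1-1077, Expi293f-expressed), […], with 25 nM Ub-Rh110 (<<Km) in pH 8.0 Tris buffer with BME, BGG, Triton X-100. 10-point dilutions (25 μM-1.3 nM), 45 min at room temperature, citric acid stop, fluorescence 485/535 nm; IC50 by 4-parameter fit.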

Structure (SMILES) | pIC50
Cc1ccc2c(N)c(C(=O)N[C@@H]3COc4cc(N5C[C@H]6CNC[C@@H]6C5)ccc4C3)sc2n1 [Example 44, 3-amino-N-((S)-7-((3aR,6aR)-hexahydropyrrolo[3,4-c]pyrrol-2(1H)-yl)chroman-3-yl)-6-methylthieno[2,3-b]pyridine-2-carboxamide] | < 5.70
Nc1c(C(=O)N[C@H]2COc3cc(N4CCNCC4)ccc3C2)sc2nc(C3CC3)sc12 [Example 45] | 6.70 to 7.30
Cc1nc2sc(C(=O)N[C@@H]3COc4cc(N5CC6CCC(C5)N6)c(F)cc4C3)c(N)c2s1 [Example 46, N-((3S)-7-(3 8-diazabicyclo[3.2.1]octan-3-yl)-6-fluorochroman-3-yl)-6-amino-2-methylthieno[2,3-d]thiazole-5-carboxamide] | 7.30 to 9.00
Cc1nc2sc(C(=O)N[C@H]3COc4cc(N5CC6CCC(C5)N6)c(F)cc4C3)c(N)c2s1 [Example 47, N-((3R)-7-(3,8-diazabicyclo[3.2.1]octan-3-yl)-6-fluorochroman-3-yl)-6-amino-2-methylthieno[2,3-d]thiazole-5-carboxamide] | 5.70 to 6.70
Cc1ccc2c(N)c(C(=O)N[C@H]3COc4cc(N5CCNCC5)cc(Cl)c4C3)sc2n1 [Example 48, (R)-3-amino-N-(5-chloro-7-(piperazin-1-yl)chroman-3-yl)-6-methylthieno[2,3-b]pyridine-2-carboxamide] | 7.30 to 9.00
Cc1ccc2c(N)c(C(=O)N[C@@H]3COc4cc(N5CCNCC5)cc(Cl)c4C3)sc2n1 [Example 49, (S)-3-amino-N-(5-chloro-7-(piperazin-1-yl)chroman-3-yl)-6-methylthieno[2,3-b]pyridine-2-carboxamide] | 5.70 to 6.70
O=C(N[C@H]1COc2cc(N3CC4CCC(C3)N4)ccc2C1)c1cnc2c(c1)CCCN2 [Example 50, N-((3R)-7-(3,8-diazabicyclo[3.2.1]octan-3-yl)chroman-3-yl)-5,6,7,8-tetrahydro-1,8-naphthyridine-3-carboxamide] | 6.70 to 7.30
O=C(N[C@H]1COc2cc(N3CC4CCC(C3)N4)ccc2C1)c1cnc2c(c1)CCCO2 [Example 51, N-((3R)-7-(3,8-diazabicyclo[3.2.1]octan-3-yl)chroman-3-yl)-3,4-dihydro-2H-pyrano[2,3-b]pyridine-6-carboxamide] | 5.70 to 6.70
O=C(N[C@H]1COc2cc(N3CCNCC3)ccc2C1)c1ccc(NCc2ccccc2)nc1 [Example 52, (R)-6-(benzylamino)-N-(7-(piperazin-1-yl)chroman-3-yl)nicotinamide] | 5.70 to 6.70
C[C@H](Nc1ccc(C(=O)N[C@H]2COc3cc(N4CCNCC4)ccc3C2)cn1)c1ccccc1 [Example 53, 6-(((S)-1-phenylethyl)amino)-N-((R)-7-(piperazin-1-yl)chroman-3-yl)nicotinamide] | < 5.70
C[C@@H](Nc1ccc(C(=O)N[C@H]2COc3cc(N4CCNCC4)ccc3C2)cn1)c1ccccc1 [Example 54, 6-(((R)-1-phenylethyl)amino)-N-((R)-7-(piperazin-1-yl)chroman-3-yl)nicotinamide] | < 5.70
Cc1ccc2c(N)c(C(=O)N[C@H]3COc4c(F)c(N5CCNCC5)cc(F)c4C3)sc2n1 [Example 55, (R)-3-amino-N-(5,8-difluoro-7-(piperazin-1-yl)chroman-3-yl)-6-methylthieno[2,3-b]pyridine-2-carboxamide] | 7.30 to 9.00
Cc1nc2sc(C(=O)N[C@H]3COc4c(F)c(N5CCNCC5)cc(F)c4C3)c(N)c2s1 [Example 56, (R)-6-amino-N-(5,8-difluoro-7-(piperazin-1-yl)chroman-3-yl)-2-methylthieno[2,3-d]thiazole-5-carboxamide] | 7.30 to 9.00
O=C(N[C@H]1COc2cc(N3CCNCC3)ccc2C1)c1cnc2c(c1)CC[C@H]2O [Example 57, (R)-7-hydroxy-N-((R)-7-(piperazin-1-yl)chroman-3-yl)-6,7-dihydro-5H-cyclopenta[b]pyridine-3-carboxamide] | < 5.70
O=C(N[C@H]1COc2cc(N3CCNCC3)ccc2C1)c1cnc2c(c1)CC[C@@H]2O [Example 58, (S)-7-hydroxy-N-((R )-7-(piperazin-1-yl)chroman-3-yl)-6,7-dihydro-5H-cyclopenta[b]pyridine-3-carboxamide] | 5.70 to 6.70
O=C(N[C@H]1COc2cc(N3CCNCC3)ccc2C1)c1cnc2c(ccn2Cc2ccccc2)c1 [Example 59, (R)-1-benzyl-N-(7-(piperazin-1-yl)chroman-3-yl)-1H-pyrrolo[2,3-b]pyridine-5-carboxamide] | 7.30 to 9.00
Cc1cnc2c(N)c(C(=O)N[C@H]3COc4c(C#N)c(N5CCNCC5)cc(F)c4C3)sc2n1 [Example 60, (R)-7-amino-N-(8-cyano-5-fluoro-7-(piperazin-1-yl)chroman-3-yl)-3-methylthieno[2,3-b]pyrazine-6-carboxamide] | 6.70 to 7.30
Cc1ccc2c(N)c(C(=O)N[C@H]3COc4cc(N5CCNCC5)c(F)c(F)c4C3)sc2n1 [Example 61, (R)-3-amino-N-(5,6-difluoro-7-(piperazin-1-yl)chroman-3-yl)-6-methylthieno[2,3-b]pyridine-2-carboxamide] | 7.30 to 9.00
Cc1ccc2c(N)c(C(=O)N[C@H]3COc4cc([C@H]5CCNC[C@H]5O)ccc4C3)sc2n1 [Example 62, 3-amino-N-((R)-7-((3S,4R)-3-hydroxypiperidin-4-yl)chroman-3-yl)-6-methylthieno[2,3-b]pyridine-2-carboxamide] | 7.30 to 9.00
Cc1ccc2c(N)c(C(=O)N[C@H]3COc4cc([C@@H]5CCNC[C@@H]5O)ccc4C3)sc2n1 [Example 63, 3-amino-N-((R)-7-((3R,4S)-3-hydroxypiperidin-4-yl)chroman-3-yl)-6-methylthieno[2,3-b]pyridine-2-carboxamide] | 7.30 to 9.00
Cc1ccc2c(N)c(C(=O)N[C@H]3COc4cc([C@H]5CCNC[C@@H]5O)ccc4C3)sc2n1 [Example 64, 3-amino-N-((R)-7-((3R,4R)-3-hydroxypiperidin-4-yl)chroman-3-yl)-6-methylthieno[2,3-b]pyridine-2-carboxamide] | 7.30 to 9.00
Cc1ccc2c(N)c(C(=O)N[C@H]3COc4cc([C@@H]5CCNC[C@H]5O)ccc4C3)sc2n1 [Example 65, 3-amino-N-((R)-7-((3S,4S)-3-hydroxypiperidin-4-yl)chroman-3-yl)-6-methylthieno[2,3-b]pyridine-2-carboxamide] | 7.30 to 9.00
Cc1nc2sc(C(=O)N[C@H]3COc4cc(N5CCNCC5)c(F)c(F)c4C3)c(N)c2s1 [Example 66, (R)-6-amino-N-(5,6-difluoro-7-(piperazin-1-yl)chroman-3-yl)-2-methylthieno[2,3-d]thiazole-5-carboxamide] | 7.30 to 9.00
Cc1cnc2c(N)c(C(=O)N[C@H]3COc4cc(N5CCNCC5)c(C#N)c(F)c4C3)sc2n1 [Example 67, (R)-7-amino-N-(6-cyano-5-fluoro-7-(piperazin-1-yl)chroman-3-yl)-3-methylthieno[2,3-b]pyrazine-6-carboxamide] | 7.30 to 9.00
Cc1ccc2c(N)c(C(=O)N[C@H]3COc4c(F)c(N5CCNCC5)cc(F)c4C3)oc2n1 [Example 68, (R)-3-amino-N-(5,8-difluoro-7-(piperazin-1-yl)chroman-3-yl)-6-methylfuro[2,3-b]pyridine-2-carboxamide] | 5.70 to 6.70
Cc1ccc2c(N)c(C(=O)N[C@H]3COc4cc([C@H]5CCNCC5(F)F)ccc4C3)sc2n1 [Example 69, 3-amino-N-((R)-7-((R)-3,3-difluoropiperidin-4-yl)chroman-3-yl)-6-methylthieno[2,3-b]pyridine-2-carboxamide] | 7.30 to 9.00
Cc1ccc2c(N)c(C(=O)N[C@H]3COc4cc([C@@H]5CCNCC5(F)F)ccc4C3)sc2n1 [Example 70, 3-amino-N-((R)-7-((S)-3,3-difluoropiperidin-4-yl)chroman-3-yl)-6-methylthieno[2,3-b]pyridine-2-carboxamide] | 7.30 to 9.00
Cc1cnc2c(N)c(C(=O)N[C@H]3COc4cc(N5CCNCC5)ncc4C3)sc2n1 [Example 71, (R)-7-amino-3-methyl-N-(7-(piperazin-1-yl)-3,4-dihydro-2H-pyrano[3,2-c]pyridin-3-yl)thieno[2,3-b]pyrazine-6-carboxamide] | 6.70 to 7.30
